The source of these data is US11597727B2 (THE REGENTS OF THE UNIVERSITY OF CALIFORNIA, priority 2018, dated 2023).

Where only a bound is given, the exact number is not on record here.

Experiment [1] has as its target T1, integrin α2β1 (Homo sapiens, UniProt P05556+P17301). The experiment can be described thus: Cell adhesion assay, adhesion to collagen in vitro (cell type not stated for these values). Type of experiment: cell-based. Also noted: endogenous in cells. The settings on record: compared with c15. As for the experimental part: (§1) Cell adhesion Assay: Ninety-six-well flat-bottomed tissue culture plates were coated with rat tail collagen I for 1 hour at 37° C. After incubation, wells were blocked with 1% BSA at 37° C. for 1 hour. Control wells were filled with 1% BSA. HT1080 (human fibrosarcoma) cells (or human airway smooth muscle cells) were detached and resuspended in serum-free DMEM. Cells were incubated with anti-integrin alpha2 antibody control or 10-fold dilutions of each compound with a starting concentration of 10 uM for 15 minutes at 4° C. before plating. The plates were centrifuged at 10 g for 5 minutes before incubation for 1 hour at 37° C. in humidified 5% CO2. Nonadherent cells were removed by centrifugation (top side down) at 10 g for 5 minutes. Attached cells were stained with 0.5% crystal violet, and the wells were washed with PBS. The relative number of cells in each well was evaluated after solubilization in 40 μl of 2% Triton X-100 by measuring absorbance at 595 nm in a microplate reader. All determinations were carried out in triplicate.

For experiment [2], the target named is T1, integrin α2β1. The experiment can be described thus: HT 1080 cell adhesion assay on rat tail collagen I. Type of experiment: cell-based. Details: HT1080 (human fibrosarcoma) cells (or human airway smooth muscle cells) were detached and resuspended in serum-free DMEM; endogenous in cells; host or cells: HT1080 human fibrosarcoma cells. The settings on record: HT1080 (human fibrosarcoma) cells on rat tail collagen I, absorbance at 595 nm, triplicate; read-out: IC50s from HT 1080 Cell adhesion assay. As for the experimental part: as §1

T1 sequence (P17301 30-1181): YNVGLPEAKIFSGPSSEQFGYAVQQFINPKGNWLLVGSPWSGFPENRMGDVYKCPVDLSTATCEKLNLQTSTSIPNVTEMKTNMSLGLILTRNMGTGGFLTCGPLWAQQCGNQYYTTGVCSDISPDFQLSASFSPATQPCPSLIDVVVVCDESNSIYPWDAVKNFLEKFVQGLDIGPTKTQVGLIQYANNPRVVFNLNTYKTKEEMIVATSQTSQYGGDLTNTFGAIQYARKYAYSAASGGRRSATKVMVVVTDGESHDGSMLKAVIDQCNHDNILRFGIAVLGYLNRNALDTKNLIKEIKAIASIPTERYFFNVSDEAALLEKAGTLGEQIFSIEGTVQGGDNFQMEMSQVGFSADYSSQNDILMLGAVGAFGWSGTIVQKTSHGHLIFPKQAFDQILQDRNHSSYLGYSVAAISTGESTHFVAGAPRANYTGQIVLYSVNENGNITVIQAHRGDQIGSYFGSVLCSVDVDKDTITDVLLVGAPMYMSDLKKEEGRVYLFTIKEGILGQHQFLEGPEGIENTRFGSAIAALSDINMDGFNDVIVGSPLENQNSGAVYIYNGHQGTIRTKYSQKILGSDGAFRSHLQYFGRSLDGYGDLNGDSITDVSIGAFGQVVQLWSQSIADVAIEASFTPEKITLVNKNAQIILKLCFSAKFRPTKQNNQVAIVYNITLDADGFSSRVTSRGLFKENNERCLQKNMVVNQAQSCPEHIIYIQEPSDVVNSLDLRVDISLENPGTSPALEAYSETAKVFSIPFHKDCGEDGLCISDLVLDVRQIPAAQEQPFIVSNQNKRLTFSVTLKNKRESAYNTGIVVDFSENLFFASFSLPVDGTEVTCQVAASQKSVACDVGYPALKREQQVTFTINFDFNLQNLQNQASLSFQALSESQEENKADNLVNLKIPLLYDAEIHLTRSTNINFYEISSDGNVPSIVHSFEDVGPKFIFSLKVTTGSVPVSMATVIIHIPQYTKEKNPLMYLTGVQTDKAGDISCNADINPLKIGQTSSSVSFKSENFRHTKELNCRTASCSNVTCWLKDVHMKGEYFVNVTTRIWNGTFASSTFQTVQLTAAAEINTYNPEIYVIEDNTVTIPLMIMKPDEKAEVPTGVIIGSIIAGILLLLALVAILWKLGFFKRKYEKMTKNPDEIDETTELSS
T1 sequence (P05556 21-798): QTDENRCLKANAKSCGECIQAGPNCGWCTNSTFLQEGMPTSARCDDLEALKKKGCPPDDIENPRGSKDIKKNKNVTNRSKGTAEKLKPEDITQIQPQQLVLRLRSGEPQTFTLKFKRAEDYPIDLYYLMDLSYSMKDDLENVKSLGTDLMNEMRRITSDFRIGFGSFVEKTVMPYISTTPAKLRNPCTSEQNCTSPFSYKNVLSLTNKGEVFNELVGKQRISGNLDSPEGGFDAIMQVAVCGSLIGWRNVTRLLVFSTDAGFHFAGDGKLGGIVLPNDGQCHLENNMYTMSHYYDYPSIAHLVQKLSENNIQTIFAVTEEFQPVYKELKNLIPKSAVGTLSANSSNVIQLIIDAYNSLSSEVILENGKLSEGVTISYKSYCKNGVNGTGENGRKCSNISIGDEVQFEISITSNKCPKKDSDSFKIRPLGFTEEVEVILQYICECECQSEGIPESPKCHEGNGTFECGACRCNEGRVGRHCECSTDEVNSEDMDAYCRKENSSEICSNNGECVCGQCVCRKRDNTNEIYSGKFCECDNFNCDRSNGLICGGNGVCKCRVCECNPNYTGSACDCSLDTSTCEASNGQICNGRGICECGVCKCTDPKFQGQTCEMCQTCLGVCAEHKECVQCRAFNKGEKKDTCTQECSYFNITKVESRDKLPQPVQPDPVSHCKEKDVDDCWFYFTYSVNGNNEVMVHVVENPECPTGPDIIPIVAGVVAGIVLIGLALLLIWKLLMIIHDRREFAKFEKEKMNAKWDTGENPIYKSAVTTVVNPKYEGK

With `O=C(NCc1ccccc1)NC[C@H](NC(=O)c1c(Cl)cccc1Cl)C(=O)O` [A2-4, (S)-3-(3-benzylureido)-2-(2,6-dichlorobenzamido)propanoic acid], the “fold less potent than c15 in a cell adhesion assay” value in experiment [1] was determined as 2 fold.

For `CN(C)C(=O)NC[C@H](NC(=O)c1c(Cl)cccc1Cl)C(=O)O` [A2-70, (S)-2-(2,6-dichlorobenzamido)-3-(3,3-dimethylureido)propanoic acid], in experiment [2], the IC50 is > 100 µM.

On to `O=C(CC1CCCCC1)N[C@@H](CNC(=O)NCc1ccccc1)C(=O)O` [A2-64, (S)-3-(3-benzylureido)-2-(2-cyclohexylacetamido)propanoic acid], for which the IC50 in experiment [2] is > 100 µM.

In the case of `O=C(NCC1CC2CCC1CC2)NC[C@H](NC(=O)c1c(Cl)cccc1Cl)C(=O)O` (some centres unmarked) [A2-175], the IC50 in experiment [2] fell in the range of 10 to 100 µM.

For the molecule `COc1ccccc1CNC(=O)NC[C@H](NC(=O)c1c(Cl)cccc1Cl)C(=O)O` [KZ-1-14, (S)-2-(2,6-dichlorobenzamido)-3-(3-(2-methoxybenzyl)ureido)propanoic acid], the IC50 in experiment [2] was 10 to 100 µM.
